Measured values reported in PubChem BioAssay (NCI).
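Step 1: Grow cells in 96-well plates. Step 2: Expose to compound for 48 hours at 5 concentrations. Step 3: Interpolate endpoints linearly; if unreached, use highest concentration. Definition used: TGI = concentration required for complete inhibition of growth.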

Columns and labels:
Assay in all cases: DTP human tumour cell line panel, 48 h
786-0 renal = tested on: 786-0 renal
A498 renal = tested on: A498 renal
A549 NSCLC = tested on: A549 NSCLC
ACHN renal = tested on: ACHN renal
CAKI-1 renal = tested on: CAKI-1 renal
CCRF-CEM leukemia = tested on: CCRF-CEM leukemia
COLO 205 colon = tested on: COLO 205 colon
DLD-1 colon = tested on: DLD-1 colon
DMS 114 small cell lung = tested on: DMS 114 small cell lung
DMS 273 small cell lung = tested on: DMS 273 small cell lung
EKVX NSCLC = tested on: EKVX NSCLC
HCC-2998 colon = tested on: HCC-2998 colon
HCT-15 colon = tested on: HCT-15 colon
HL-60(TB) leukemia = tested on: HL-60(TB) leukemia
HOP-18 NSCLC = tested on: HOP-18 NSCLC
HOP-62 NSCLC = tested on: HOP-62 NSCLC
HOP-92 NSCLC = tested on: HOP-92 NSCLC
HT29 colon = tested on: HT29 colon
IGROV1 ovarian = tested on: IGROV1 ovarian
K-562 leukemia = tested on: K-562 leukemia
KM12 colon = tested on: KM12 colon
KM20L2 colon = tested on: KM20L2 colon
LOX IMVI melanoma = tested on: LOX IMVI melanoma
LXFL 529 NSCLC = tested on: LXFL 529 NSCLC
M14 melanoma = tested on: M14 melanoma
MALME-3M melanoma = tested on: MALME-3M melanoma
MOLT-4 leukemia = tested on: MOLT-4 leukemia
NCI-H226 lung = tested on: NCI-H226 lung
NCI-H23 lung = tested on: NCI-H23 lung
NCI-H460 lung = tested on: NCI-H460 lung
NCI-H522 lung = tested on: NCI-H522 lung
OVCAR-3 ovarian = tested on: OVCAR-3 ovarian
OVCAR-4 ovarian = tested on: OVCAR-4 ovarian
OVCAR-5 ovarian = tested on: OVCAR-5 ovarian
OVCAR-8 ovarian = tested on: OVCAR-8 ovarian
RPMI-8226 leukemia = tested on: RPMI-8226 leukemia
SF-268 CNS = tested on: SF-268 CNS
SF-295 CNS = tested on: SF-295 CNS
SF-539 CNS = tested on: SF-539 CNS
SK-MEL-2 melanoma = tested on: SK-MEL-2 melanoma
SK-MEL-28 melanoma = tested on: SK-MEL-28 melanoma
SK-MEL-5 melanoma = tested on: SK-MEL-5 melanoma
SK-OV-3 ovarian = tested on: SK-OV-3 ovarian
SN12C renal = tested on: SN12C renal
SNB-19 CNS = tested on: SNB-19 CNS
SNB-75 CNS = tested on: SNB-75 CNS
SNB-78 CNS = tested on: SNB-78 CNS
SW-620 colon = tested on: SW-620 colon
TK-10 renal = tested on: TK-10 renal
U251 CNS = tested on: U251 CNS
UACC-257 melanoma = tested on: UACC-257 melanoma
UACC-62 melanoma = tested on: UACC-62 melanoma
UO-31 renal = tested on: UO-31 renal
XF 498 CNS = tested on: XF 498 CNS
HCT-116 colon = tested on: HCT-116 colon
M19-MEL melanoma = tested on: M19-MEL melanoma
SR leukemia = tested on: SR leukemia

Measured: TGI

NC(=O)c1csc(C2O[C@@H](COP(=O)(O)OP(=O)(O)OC[C@H]3OC(n4cnc5c(N)ncnc54)[C@H](O)[C@@H]3O)[C@H](O)[C@@H]2O)n1 (stereo partly specified)
> 100 µM: 786-0 renal | A498 renal | A549 NSCLC | ACHN renal | CAKI-1 renal | CCRF-CEM leukemia | COLO 205 colon | DLD-1 colon | DMS 114 small cell lung | DMS 273 small cell lung | EKVX NSCLC | HCC-2998 colon | HCT-15 colon | HL-60(TB) leukemia | HOP-18 NSCLC | HOP-62 NSCLC | HOP-92 NSCLC | HT29 colon | IGROV1 ovarian | K-562 leukemia | KM12 colon | KM20L2 colon | LOX IMVI melanoma | LXFL 529 NSCLC | M14 melanoma | MALME-3M melanoma | MOLT-4 leukemia | NCI-H226 lung | NCI-H23 lung | NCI-H460 lung | NCI-H522 lung | OVCAR-3 ovarian | OVCAR-4 ovarian | OVCAR-5 ovarian | OVCAR-8 ovarian | RPMI-8226 leukemia | SF-268 CNS | SF-295 CNS | SF-539 CNS | SK-MEL-2 melanoma | SK-MEL-28 melanoma | SK-MEL-5 melanoma | SK-OV-3 ovarian | SN12C renal | SNB-19 CNS | SNB-75 CNS | SNB-78 CNS | SW-620 colon | TK-10 renal | U251 CNS | UACC-257 melanoma | UACC-62 melanoma | UO-31 renal | XF 498 CNS

OC12c3ccccc3C1CCCCCCCCCC21OCCCO1 (stereo unspecified)
> 100 µM: A549 NSCLC | CCRF-CEM leukemia | COLO 205 colon | DLD-1 colon | DMS 114 small cell lung | DMS 273 small cell lung | EKVX NSCLC | HCC-2998 colon | HCT-116 colon | HCT-15 colon | HL-60(TB) leukemia | HOP-18 NSCLC | HOP-62 NSCLC | HT29 colon | IGROV1 ovarian | K-562 leukemia | KM12 colon | LOX IMVI melanoma | LXFL 529 NSCLC | M14 melanoma | M19-MEL melanoma | MALME-3M melanoma | NCI-H226 lung | NCI-H23 lung | NCI-H522 lung | OVCAR-3 ovarian | OVCAR-4 ovarian | OVCAR-5 ovarian | OVCAR-8 ovarian | RPMI-8226 leukemia | SF-268 CNS | SF-295 CNS | SF-539 CNS | SK-MEL-28 melanoma | SK-MEL-5 melanoma | SK-OV-3 ovarian | SN12C renal | SNB-19 CNS | SNB-75 CNS | SNB-78 CNS | SR leukemia | SW-620 colon | TK-10 renal | UACC-257 melanoma | UACC-62 melanoma | UO-31 renal | XF 498 CNS
